Experimental data: patent US7652020B2, “Compounds for the treatment of inflammatory disorders” (Schering Corporation, priority 2004, dated 2010)

Target: T1, purified catalytic domain of recombinant human TACE (rhTACEc) (Homo sapiens, UniProt P78536, N452Q/S266A)
T1 construct: Residue 215 to 477 with two mutation (S266A and N452Q) and a 6×His tail; 6xHis (C); made in house; host or cells: baculovirus/Hi5 insect cells
Test: TACE kinetic assay: cleavage of internally quenched peptide substrate SPDL-3, fluorescence
Type: biochemical
Conditions: TACE inhibitory activity, class symbols; read-out: Ki
Experimental: TACE activity is determined by a kinetic assay measuring the rate of increase in fluorescent intensity generated by TACE catalyzed cleavage of an internally quenched peptide substrate (SPDL-3). […] It is purified from the baculovirus/Hi5 cells expression system using affinity chromatography. […] MCA is (7-Methoxycoumarin-4-yl)acetyl. Dpa is N-3-(2,4-Dinitrophenyl)-L-2,3-diaminopropionyl.
A 50 μl assay mixture contains 20 mM HEPES, pH 7.3, 5 mM CaCl2, 100 μM ZnCl2, 2% DMSO, 0.04% Methylcellulose, 30 μM SPDL-3, 70 pM rhTACEc and a test compound. RhTACEc is pre-incubated with the testing compound for 90 min. at 25° C. Reaction is started by addition of the substrate. […] Rate of enzymatic reaction is shown as Units per second. Effect of a test compound is shown as % of TACE activity in the absence of the compound.

T1 sequence (P78536 215-477 S266A/N452Q): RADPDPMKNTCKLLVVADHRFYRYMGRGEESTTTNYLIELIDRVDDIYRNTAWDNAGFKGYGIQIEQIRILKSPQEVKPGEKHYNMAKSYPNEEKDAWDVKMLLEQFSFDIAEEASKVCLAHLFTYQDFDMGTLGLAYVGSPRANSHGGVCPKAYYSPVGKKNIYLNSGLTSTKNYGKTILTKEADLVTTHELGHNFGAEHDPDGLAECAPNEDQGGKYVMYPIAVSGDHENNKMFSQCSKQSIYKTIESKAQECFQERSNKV

| SMILES | Ki [µM] |
| --- | --- |
| C[C@](O)(C(=O)NCC1CCN(c2ccccc2OC(F)(F)F)CC1)[C@@H](O)C(=O)N1Cc2cccnc2C1 [Compound 2038] | 0.02 to 0.1 |
| C[C@@H](NC(=O)[C@](C)(O)[C@@H](O)C(=O)N1Cc2ccncc2C1)c1ccc(-n2cccn2)cc1 [Compound 2039] | < 0.02 |
| O=C(NCC1CCN(c2ccccc2OC(F)(F)F)CC1)[C@H](O)[C@@H](O)C(=O)N1Cc2ccncc2C1 [Compound 2040] | < 0.02 |
| C[C@](O)(C(=O)NCC1CCN(c2ccc(F)cc2C#N)CC1)[C@@H](O)C(=O)N1Cc2ccncc2C1 [Compound 2041] | 0.02 to 0.1 |
| CCOc1cc(F)ccc1-c1ccc(CNC(=O)[C@H](O)[C@@H](O)C(=O)N2Cc3ccncc3C2)cc1 [Compound 2042] | < 0.02 |
| C[C@@H](NC(=O)[C@H](O)[C@@H](O)C(=O)N1Cc2cnc(N)nc2C1)c1ccc(-n2cccn2)cc1 [Compound 2043] | < 0.02 |
| C[C@@H](NC(=O)[C@H](O)[C@@H](O)C(=O)N1Cc2cncnc2C1)c1ccc(-n2cccn2)cc1 [Compound 2044] | < 0.02 |
| Cc1ncc2c(n1)CN(C(=O)[C@H](O)[C@@H](O)C(=O)N[C@H](C)c1ccc(-n3cccn3)cc1)C2 [Compound 2045] | 0.1 to 1 |
| C[C@@H](NC(=O)[C@H](O)[C@@H](O)C(=O)N1Cc2cncnc2C1(C)C)c1ccc(-n2cccn2)cc1 [Compound 2046] | 0.1 to 1 |
| C[C@@H](NC(=O)[C@](C)(O)[C@@H](O)C(=O)N1Cc2cncnc2C1(C)C)c1ccc(-n2cccn2)cc1 [Compound 2047] | 0.1 to 1 |
| CC1c2ncncc2CN1C(=O)[C@H](O)[C@@H](O)C(=O)N[C@H](C)c1ccc(-n2cccn2)cc1 (stereo partly drawn) [Compound 2049] | 0.02 to 0.1 |
| CC1c2cncnc2CN1C(=O)[C@H](O)[C@@H](O)C(=O)N[C@H](C)c1ccc(-n2cccn2)cc1 (stereo partly drawn) [Compound 2050] | 0.02 to 0.1 |
| CC1c2cnc(N)nc2CN1C(=O)[C@H](O)[C@@H](O)C(=O)N[C@H](C)c1ccc(-n2cccn2)cc1 (stereo partly drawn) [Compound 2051] | 0.02 to 0.1 |
| CNc1ncc2c(n1)CN(C(=O)[C@H](O)[C@@H](O)C(=O)N[C@H](C)c1ccc(-n3cccn3)cc1)C2 [Compound 2052] | < 0.02 |
| CNc1ncc2c(n1)C(C)N(C(=O)[C@H](O)[C@@H](O)C(=O)N[C@H](C)c1ccc(-n3cccn3)cc1)C2 (stereo partly drawn) [Compound 2053] | 0.02 to 0.1 |
| CNc1ncc2c(n1)CN(C(=O)[C@H](O)[C@@H](O)C(=O)N[C@H](C)c1ccc(-n3cccn3)cc1)C2C (stereo partly drawn) [Compound 2054] | < 0.02 |
| Cc1nc2c(s1)CN(C(=O)[C@H](O)[C@@](C)(O)C(=O)N[C@H](C)c1ccc(-n3cccn3)cc1)C2 [Compound 2057] | < 0.02 |
| C[C@@H](NC(=O)[C@H](O)[C@@H](O)C(=O)N1CCc2[nH]ncc2C1)c1ccc(-n2cccn2)cc1 [Compound 2073] | 0.02 to 0.1 |

| SMILES | Ki [µM] |
| --- | --- |
| C[C@@H](NC(=O)[C@H](O)[C@@H](O)C(=O)N1CCc2c(cnn2C)C1)c1ccc(-n2cccn2)cc1 [Compound 2074] | 0.02 to 0.1 |
| C[C@@H](NC(=O)[C@H](O)[C@@H](O)C(=O)N1CCc2nc(N)ncc2C1)c1ccc(-n2cccn2)cc1 [Compound 2075] | 0.02 to 0.1 |
| C[C@@H](NC(=O)[C@H](O)[C@@H](O)C(=O)N1CCc2cn[nH]c2C1)c1ccc(-n2cccn2)cc1 [Compound 2076] | 0.02 to 0.1 |
| C[C@@H](NC(=O)[C@H](O)[C@@H](O)C(=O)N1CCc2ncccc2C1)c1ccc(-n2cccn2)cc1 [Compound 2077] | 0.02 to 0.1 |
| C[C@@H](NC(=O)[C@](C)(O)[C@@H](O)C(=O)N1CCc2ncccc2C1)c1ccc(-n2cccn2)cc1 [Compound 2078] | 0.1 to 1 |
| C[C@@H](NC(=O)[C@H](O)[C@@H](O)C(=O)N1CCc2ncncc2C1)c1ccc(-n2cccn2)cc1 [Compound 2079] | 0.1 to 1 |
| C[C@@H](NC(=O)[C@H](O)[C@@H](O)C(=O)N1CCn2cnnc2C1)c1ccc(-n2cccn2)cc1 [Compound 2080] | 0.1 to 1 |
| C[C@@H](NC(=O)[C@H](O)[C@@H](O)C(=O)N1CCc2nc(N)sc2C1)c1ccc(-n2cccn2)cc1 [Compound 2081] | < 0.02 |
| C[C@@H](NC(=O)[C@H](O)[C@@H](O)C(=O)N1CCn2ccnc2C1)c1ccc(-n2cccn2)cc1 [Compound 2082] | 0.1 to 1 |
| C[C@@H](NC(=O)[C@H](O)[C@@H](O)C(=O)N1CCc2cccnc2C1)c1ccc(-n2cccn2)cc1 [Compound 2083] | 0.02 to 0.1 |
| CNc1nc2c(s1)CN(C(=O)[C@H](O)[C@@H](O)C(=O)N[C@H](C)c1ccc(-n3cccn3)cc1)CC2 [Compound 2084] | 0.02 to 0.1 |
| C[C@@H](NC(=O)[C@H](O)[C@@H](O)C(=O)N1C2CCC1c1cncnc1C2)c1ccc(-n2cccn2)cc1 (stereo partly drawn) [Compound 2093] | > 1 |
| N#Cc1cc(F)ccc1N1CCC(CNC(=O)[C@H](O)[C@@H](O)C(=O)N2C3CCC2CC3)CC1 [Compound 2094] | > 1 |
| C[C@@H](NC(=O)[C@H](O)[C@@H](O)C(=O)N1C2CCC1CC2)c1ccc(-n2cccn2)cc1 [Compound 2095] | 0.1 to 1 |
| C[C@@H](NC(=O)[C@H](O)[C@@H](O)C(=O)N1C2CCC1c1cc(F)c(F)cc12)c1ccc(-n2cccn2)cc1 [Compound 2096] | 0.1 to 1 |
| C[C@@H](NC(=O)[C@H](O)[C@@H](O)C(=O)N1C[C@@H]2C[C@H](C1)c1cccc(=O)n1C2)c1ccc(-n2cccn2)cc1 [Compound 2097] | 0.1 to 1 |
| C[C@@H](NC(=O)[C@H](O)[C@@H](O)C(=O)N1CC2CC1CN2c1ccc(Cl)cc1)c1ccc(-n2cccn2)cc1 (stereo partly drawn) [Compound 2099] | 0.1 to 1 |

Next, values leading:

| Ki [µM] | SMILES |
| --- | --- |
| < 0.02 | O=C(NCC1CCN(c2ccc(F)cc2Br)CC1)[C@H](O)[C@@H](O)C(=O)N1Cc2ccccc2C1 [Compound 2139] |
| > 1 | O=C(NCC1CCN(c2cccc(F)c2OC(F)(F)F)CC1)[C@H](O)[C@@H](O)C(=O)N1CCCC1 [Compound 2140] |
| > 1 | CCOc1c(F)cccc1N1CCC(CNC(=O)[C@H](O)[C@@H](O)C(=O)N2CCCC2)CC1 [Compound 2141] |
| 0.02 to 0.1 | O=C(NCC1CCN(c2ccc(F)cc2OCC(F)(F)F)CC1)[C@H](O)[C@@H](O)C(=O)N1CCCC1 [Compound 2142] |
| < 0.02 | C[C@@H]1CN(c2ccccc2C#N)CCC1CNC(=O)[C@H](O)[C@@H](O)C(=O)N1Cc2ccccc2C1 (stereo partly drawn) [Compound 2143] |
| < 0.02 | C[C@@H]1CN(c2ccccc2C#N)CCC1CNC(=O)[C@H](O)[C@@H](O)C(=O)N1CCC[C@@H]1c1ccccc1 (stereo partly drawn) [Compound 2144] |
| 0.1 to 1 | C[C@H]1CN(c2ccccc2C#N)CCC1CNC(=O)[C@H](O)[C@@H](O)C(=O)N1CCC[C@@H]1c1ccccc1 (stereo partly drawn) [Compound 2145] |
| 0.1 to 1 | C[C@H]1CN(c2ccccc2C#N)CCC1CNC(=O)[C@H](O)[C@@H](O)C(=O)N1Cc2ccccc2C1 (stereo partly drawn) [Compound 2146] |
| 0.1 to 1 | N#Cc1cc(F)ccc1N1C[C@@H]2C(CNC(=O)[C@H](O)[C@@H](O)C(=O)N3CCCC3)[C@@H]2C1 (stereo partly drawn) [Compound 2147] |
| 0.1 to 1 | N#Cc1cc(F)ccc1N1[C@@H]2CC[C@H]1CC(CNC(=O)[C@H](O)[C@@H](O)C(=O)N1CCC[C@@H]1c1ccccc1)C2 (stereo partly drawn) [Compound 2148] |
| 0.1 to 1 | N#Cc1cc(F)ccc1N1[C@@H]2CC[C@H]1CC(CNC(=O)[C@H](O)[C@@H](O)C(=O)N1Cc3ccccc3C1)C2 (stereo partly drawn) [Compound 2149] |
| 0.02 to 0.1 | C[C@@H]1CN(c2ccc(F)cc2C#N)CCC1CNC(=O)[C@H](O)[C@@H](O)C(=O)N1CCCC1 (stereo partly drawn) [Compound 2150] |
| < 0.02 | Cc1nc2c(s1)CN(C(=O)[C@H](O)[C@@H](O)C(=O)NCC1CCN(c3ccccc3C#N)CC1C)C2 (stereo partly drawn) [Compound 2151] |
| > 1 | N#Cc1ccccc1N1CCC2(CC1)CC2NC(=O)[C@H](O)[C@@H](O)C(=O)N1CCC[C@@H]1c1ccccc1 (stereo partly drawn) [Compound 2152] |
| > 1 | N#Cc1ccccc1N1CCC2(CC1)CC2NC(=O)[C@H](O)[C@@H](O)C(=O)N1CCC[C@@H]1c1ccccc1 (stereo partly drawn) [Compound 2153] |
| > 1 | N#Cc1ccccc1N1CCC2(CC1)CC2NC(=O)[C@H](O)[C@@H](O)C(=O)N1Cc2ccccc2C1 (stereo partly drawn) [Compound 2154] |
| > 1 | N#Cc1ccccc1N1CCC2(CC1)CC2NC(=O)[C@H](O)[C@@H](O)C(=O)N1Cc2ccccc2C1 (stereo partly drawn) [Compound 2155] |
| 0.02 to 0.1 | NC[C@@H]1[C@H]2CN(C(=O)[C@H](O)[C@@H](O)C(=O)NCC3CCN(c4ccccc4OC(F)(F)F)CC3)C[C@@H]12 [Compound 2156] |
| 0.02 to 0.1 | CC(C)(NC(=O)[C@H](O)[C@@H](O)C(=O)N1CCCC1)C1CCN(c2ccc(F)cc2C#N)CC1 [Compound 2157] |
| 0.02 to 0.1 | O=C(NCC1CCN(c2ccccc2OCCC2CCCCC2)CC1)[C@H](O)[C@@H](O)C(=O)N1CCCC1 [Compound 2158] |
| 0.02 to 0.1 | O=C(NCC1CCN(c2ccc(F)cc2OCCC2CCCCC2)CC1)[C@H](O)[C@@H](O)C(=O)N1CCCC1 [Compound 2159] |
| < 0.02 | CC1(C)c2ccccc2CN1C(=O)[C@H](O)[C@@H](O)C(=O)NCC1CCN(c2ccccc2C#N)CC1 [Compound 2233] |
| < 0.02 | C[C@@H](NC(=O)[C@H](O)[C@@H](O)C(=O)N1CCCC1(C)c1ccccc1)c1ccc(-n2cccn2)cc1 (stereo partly drawn) [Compound 2235] |
| > 1 | C[C@@H](NC(=O)[C@](C)(O)[C@@H](O)C(=O)N1CCCC1(C)c1cccc(Cl)c1)c1ccc(-n2cccn2)cc1 (stereo partly drawn) [Compound 2236] |
| 0.1 to 1 | C[C@@H](NC(=O)[C@H](O)[C@@H](O)C(=O)N1CC(C)(C)CC1c1cccc(Cl)c1)c1ccc(-n2cccn2)cc1 (stereo partly drawn) [Compound 2237] |
